What was measured:
[1] = test system: Acinetobacter baumannii ARLG-1809 OXA-23; experiment: MIC test of compounds in combination with antibiotics, Acinetobacter baumannii ARLG-1809; conditions: Acinetobacter baumannii, ARLG1809OXA23
Experimental: (§1) 2-Fold gradient dilution of antibiotics: 300 μL of CAMHVIB medium was added to columns 2-12 of a 96-deep well plate. In column 1, 24 μL of antibiotic stock solution and 576 µL of CAMHB medium were added and mixed well, with a concentration of 512 μg/mL. 300 µL of antibiotic solution was transferred from the column 1 to the second column and mixed well. The process was repeated until column 11, and the column 12 was a blank control.
(§2) Dilution of combined compounds: the compound was diluted 400-fold to 32 μg/ml with CAMHB medium.
(§3) Working solution aliquoting: 25 μL of antibiotics was aliquoted into the 96-U bottom plate with a pipette, and 25 μL of combined compound was added to each well. If antibiotics were used alone, 25 μL of CAMHB medium was added.
(§4) Inoculum solution preparation: 5-6 single colonies were selected from the plate and suspended in normal saline. The bacterial suspension was adjusted to 0.2 (i.e., 0.5 McFarland turbidity, with a bacterial concentration was about 1 to 2×10^8 CFU/mL) with a turbidity meter. The bacterial suspension was diluted 100-fold with CAMHB medium for later use.
(§5) Inoculation: 50 μL of inoculum solution was transferred to the above 50 μL compound plate with a pipette.
(§6) Culture: The 96-U bottom plate was placed in an incubator at 37° C. for 18 to 20 h.

[2] = test system: Klebsiella pneumoniae ATCC BAA-1705; experiment: MIC test of compounds in combination with antibiotics, Klebsiella pneumoniae ATCC BAA-1705; conditions: for MIC: Klebsiella pneumoniae, ATCCBAA1705; for MIC of biapenem in combination with compound, Klebsiella pneumoniae ATCC BAA-1705 KPC-2: Biapenem + compound (8 μg/mL); for MIC of meropenem in combination with compound, Klebsiella pneumoniae ATCC BAA-1705 KPC-2: Meropenem + compound (8 μg/mL)
[3] = test system: Klebsiella pneumoniae ATCC BAA-2470; experiment: MIC test of compounds in combination with antibiotics, Klebsiella pneumoniae ATCC BAA-2470; conditions: for MIC: Klebsiella pneumoniae, ATCCBAA2470; for MIC of biapenem in combination with compound, Klebsiella pneumoniae ATCC BAA-2470 NDM-1: Biapenem + compound (8 μg/mL); for MIC of meropenem in combination with compound, Klebsiella pneumoniae ATCC BAA-2470 NDM-1: Meropenem + compound (8 μg/mL)
[4] = test system: Escherichia coli ARLG 2829; experiment: MIC test of compounds in combination with antibiotics, Escherichia coli ARLG 2829; conditions: for MIC: Escherichia coli, ARLG2829; for MIC of biapenem in combination with compound, Escherichia coli ARLG-2829 NDM-5, OXA-1: Biapenem + compound (8 μg/mL); for MIC of meropenem in combination with compound, Escherichia coli ARLG-2829 NDM-5, OXA-1: Meropenem + compound (8 μg/mL)
Experimental: Strain preparation: the strains to be tested were streaked from glycerol tube at −80° C. onto Mueller Hinton II Agar plates. The plates were then placed in a 37° C. incubator and cultured for 18-24 hours.
Media preparation: CAMHB (Mueller Hinton II Broth): 22 g of powder was dissolved in 1 L of purified water and sterilized at 121° C. for 10 min for use. Saline: 8.5 g NaCl was dissolved in 1 L of pure water and sterilized at 121° C. for 30 min for use.
Preparation of compound and antibiotic stock solutions: the compound and antibiotic were dissolved in DMSO or water to 12.8 mg/mL.
as §1, §2, §3, §4, §5, §6
After the incubation, bacterial growth was visually observed, and the test plate was photographed and recorded.

[5] = test system: Acinetobacter baumannii ARLG-1852 OXA-23; experiment: MIC test of compounds in combination with antibiotics, Acinetobacter baumannii ARLG-1852; conditions: Acinetobacter baumannii, ARLG1852OXA23
Experimental: as §1, §2, §3, §4, §5, §6

[6] = test system: Acinetobacter baumannii WX-AB005; experiment: MIC test of compounds in combination with antibiotics, Acinetobacter baumannii WX-AB005; conditions: Acinetobacter baumannii, WXAB005
Experimental: as §1, §2, §3, §4, §5, §6

[7] = test system: Acinetobacter baumannii ARLG-1791 OXA-23; experiment: MIC test of compounds in combination with antibiotics, Acinetobacter baumannii ARLG-1791; conditions: Acinetobacter baumannii, ARLG1791OXA23
Experimental: as §1, §2, §3, §4, §5, §6

[8] = test system: Acinetobacter baumannii WX-AB013; experiment: MIC test of compounds in combination with antibiotics, Acinetobacter baumannii WX-AB013; conditions: Acinetobacter baumannii, WXAB013
Experimental: as §1, §2, §3, §4, §5, §6

[9] = test system: Klebsiella pneumoniae ARLG 1196; experiment: MIC test of compounds in combination with antibiotics, Klebsiella pneumoniae ARLG 1196; conditions: for MIC: Klebsiella pneumoniae, ARLG1196; for MIC of biapenem in combination with compound, Klebsiella pneumoniae ARLG-1196 CTM-1 group, SHV, NDM, TEM: Biapenem + compound (8 μg/mL); for MIC of meropenem in combination with compound, Klebsiella pneumoniae ARLG-1196 CTM-1 group, SHV, NDM, TEM: Meropenem + compound (8 μg/mL)
[10] = test system: Acinetobacter baumannii ARLG-1853 OXA-23; experiment: MIC test of compounds in combination with antibiotics, Acinetobacter baumannii ARLG-1853; conditions: Acinetobacter baumannii, ARLG1853OXA23
Experimental: as §1, §2, §3, §4, §5, §6

[11] = test system: Acinetobacter baumannii WX-AB013; experiment: MIC test of compounds in combination with antibiotics, Acinetobacter baumannii WX-AB013; conditions: for MIC of biapenem in combination with compound, Acinetobacter baumannii WX-AB013: Biapenem + compound (8 μg/mL); for MIC of meropenem in combination with compound, Acinetobacter baumannii WX-AB013: Meropenem + compound (8 μg/mL)
Experimental: as §1, §2, §3, §4, §5, §6

[12] = test system: Acinetobacter baumannii ARLG-1791 OXA-23; experiment: MIC test of compounds in combination with antibiotics, Acinetobacter baumannii ARLG-1791; conditions: for MIC of biapenem in combination with compound, Acinetobacter baumannii ARLG-1791 OXA-23: Biapenem + compound (8 μg/mL); for MIC of meropenem in combination with compound, Acinetobacter baumannii ARLG-1791 OXA-23: Meropenem + compound (8 μg/mL)
Experimental: as §1, §2, §3, §4, §5, §6

[13] = test system: Acinetobacter baumannii WX-AB005; experiment: MIC test of compounds in combination with antibiotics, Acinetobacter baumannii WX-AB005; conditions: for MIC of biapenem in combination with compound, Acinetobacter baumannii WX-AB005: Biapenem + compound (8 μg/mL); for MIC of meropenem in combination with compound, Acinetobacter baumannii WX-AB005: Meropenem + compound (8 μg/mL)
[14] = test system: Acinetobacter baumannii ARLG-1852 OXA-23; experiment: MIC test of compounds in combination with antibiotics, Acinetobacter baumannii ARLG-1852; conditions: for MIC of biapenem in combination with compound, Acinetobacter baumannii ARLG-1852 OXA-23: Biapenem + compound (8 μg/mL); for MIC of meropenem in combination with compound, Acinetobacter baumannii ARLG-1852 OXA-23: Meropenem + compound (8 μg/mL)
Experimental: as §1, §2, §3, §4, §5, §6

[15] = test system: Acinetobacter baumannii ARLG-1809 OXA-23; experiment: MIC test of compounds in combination with antibiotics, Acinetobacter baumannii ARLG-1809; conditions: for MIC of biapenem in combination with compound, Acinetobacter baumannii ARLG-1809 OXA-23: Biapenem + compound (8 μg/mL); for MIC of meropenem in combination with compound, Acinetobacter baumannii ARLG-1809 OXA-23: Meropenem + compound (8 μg/mL)
Experimental: as §1, §2, §3, §4, §5, §6

[16] = test system: Acinetobacter baumannii ARLG-1853 OXA-23; experiment: MIC test of compounds in combination with antibiotics, Acinetobacter baumannii ARLG-1853; conditions: for MIC of biapenem in combination with compound, Acinetobacter baumannii ARLG-1853 OXA-23: Biapenem + compound (8 μg/mL); for MIC of meropenem in combination with compound, Acinetobacter baumannii ARLG-1853 OXA-23: Meropenem + compound (8 μg/mL)
Experimental: as §1, §2, §3, §4, §5, §6

Compound | MIC of biapenem in combination with compound, Klebsiella pneumoniae ATCC BAA-1705 KPC-2 [2] [µg/mL] | MIC of meropenem in combination with compound, Klebsiella pneumoniae ATCC BAA-1705 KPC-2 [2] [µg/mL] | MIC of biapenem in combination with compound, Acinetobacter baumannii WX-AB013 [11] [µg/mL] | MIC of meropenem in combination with compound, Acinetobacter baumannii WX-AB013 [11] [µg/mL] | MIC of biapenem in combination with compound, Klebsiella pneumoniae ATCC BAA-2470 NDM-1 [3] [µg/mL] | MIC of meropenem in combination with compound, Klebsiella pneumoniae ATCC BAA-2470 NDM-1 [3] [µg/mL] | MIC of biapenem in combination with compound, Escherichia coli ARLG-2829 NDM-5, OXA-1 [4] [µg/mL] | MIC of meropenem in combination with compound, Escherichia coli ARLG-2829 NDM-5, OXA-1 [4] [µg/mL] | MIC of biapenem in combination with compound, Acinetobacter baumannii ARLG-1791 OXA-23 [12] [µg/mL] | MIC of meropenem in combination with compound, Acinetobacter baumannii ARLG-1791 OXA-23 [12] [µg/mL] | MIC of biapenem in combination with compound, Acinetobacter baumannii WX-AB005 [13] [µg/mL] | MIC of meropenem in combination with compound, Acinetobacter baumannii WX-AB005 [13] [µg/mL] | MIC of biapenem in combination with compound, Acinetobacter baumannii ARLG-1852 OXA-23 [14] [µg/mL] | MIC of meropenem in combination with compound, Acinetobacter baumannii ARLG-1852 OXA-23 [14] [µg/mL] | MIC of biapenem in combination with compound, Acinetobacter baumannii ARLG-1809 OXA-23 [15] [µg/mL] | MIC of meropenem in combination with compound, Acinetobacter baumannii ARLG-1809 OXA-23 [15] [µg/mL] | MIC of biapenem in combination with compound, Klebsiella pneumoniae ARLG-1196 CTM-1 group, SHV, NDM, TEM [9] [µg/mL] | MIC of meropenem in combination with compound, Klebsiella pneumoniae ARLG-1196 CTM-1 group, SHV, NDM, TEM [9] [µg/mL] | MIC of biapenem in combination with compound, Acinetobacter baumannii ARLG-1853 OXA-23 [16] [µg/mL] | MIC of meropenem in combination with compound, Acinetobacter baumannii ARLG-1853 OXA-23 [16] [µg/mL] | other results
C[C@@H](O)[C@H]1C(=O)N2C(C(=O)O)=C(S[C@@H]3CN[C@H](C(=O)N(C)C)C3)[C@H](C)[C@H]12 [Meropenem] | – | – | – | – | – | – | – | – | – | – | – | – | – | – | – | – | – | – | – | – | MIC [1]: 32 µg/mL; MIC [2]: 128 µg/mL; MIC [3]: 128 µg/mL; MIC [4]: > 128 µg/mL; MIC [5]: 128 µg/mL; MIC [6]: > 128 µg/mL; MIC [7]: > 128 µg/mL; MIC [8]: 64 µg/mL; MIC [9]: 128 µg/mL; MIC [10]: 128 µg/mL
CO/N=C(\C(=O)N[C@@H]1C(=O)N2C(C(=O)[O-])=C(C[N+]3(C)CCCC3)CS[C@H]12)c1csc(N)n1 [Cefepime] | – | – | – | – | – | – | – | – | – | – | – | – | – | – | – | – | – | – | – | – | MIC [1]: 128 µg/mL; MIC [2]: > 128 µg/mL; MIC [3]: > 128 µg/mL; MIC [4]: > 64 µg/mL; MIC [5]: 128 µg/mL; MIC [6]: 64 µg/mL; MIC [7]: 128 µg/mL; MIC [8]: 32 µg/mL; MIC [9]: > 64 µg/mL; MIC [10]: 128 µg/mL
C[C@@H](O)[C@H]1C(=O)N2C(C(=O)[O-])=C(SC3Cn4cnc[n+]4C3)[C@H](C)[C@H]12 (some centres unmarked) [Biapenem, biapenem] | – | – | – | – | – | – | – | – | – | – | – | – | – | – | – | – | – | – | – | – | MIC [1]: 32 µg/mL; MIC [2]: 32 µg/mL; MIC [3]: 4 µg/mL; MIC [4]: 16 µg/mL; MIC [5]: 32 µg/mL; MIC [6]: 32 µg/mL; MIC [7]: 16 µg/mL; MIC [8]: 64 µg/mL; MIC [9]: 8 µg/mL; MIC [10]: 32 µg/mL
O=C(O)c1c(SCCN2CCOCC2)ccc2c1OB(O)C1CC21 (single isomer, unassigned) [Compound 15-a] | ≤0.125 | ≤0.125 | 2 | 4 | 0.25 | 8 | 1 | 16 | 2 | 8 | 4 | 8 | 1 | 4 | 2 | 8 | 1 | 2 | 1 | 16 | –
NC1COCC1Sc1ccc2c(c1C(=O)O)OB(O)C1CC21 (single isomer, unassigned) [Compound 10_P1] | ≤0.125 | ≤0.125 | 0.5 | 2 | ≤0.125 | ≤0.125 | ≤0.125 | 1 | 0.5 | 4 | 2 | 4 | 0.25 | 1 | 1 | 2 | 0.25 | 2 | 0.5 | 2 | –
O=C(O)c1c(SCCN2CCOCC2)ccc2c1OB(O)C1CC21 (single isomer, unassigned) [Compound 15-b] | ≤0.125 | ≤0.125 | 1 | 4 | ≤0.125 | 1 | 0.25 | 1 | 0.5 | 4 | 2 | 4 | 0.25 | 2 | 1 | 2 | ≤0.125 | ≤0.125 | 0.25 | 4 | –
C[C@@H](Sc1ccc2c(c1C(=O)O)OB(O)[C@H]1C[C@@H]21)[C@@H]1CCCO1 [Compound 18-d] | 0.5 | 0.5 | 1 | 4 | 0.5 | 16 | 0.5 | 8 | 1 | 8 | 4 | 8 | 1 | 8 | 4 | 8 | ≤0.125 | 4 | 1 | 4 | –
